Results on 20 compounds are retold here after US10654834B2 (Venenum Biodesign, LLC, priority 2016, dated 2020).

One test addresses T1, mouse TGR5 receptor (Mus musculus, UniProt Q80SS6).
T1 construct: host or cells: HEK293-EBNA (293 c18, ATCC CRL10852)
T1 sequence (Q80SS6 1-329): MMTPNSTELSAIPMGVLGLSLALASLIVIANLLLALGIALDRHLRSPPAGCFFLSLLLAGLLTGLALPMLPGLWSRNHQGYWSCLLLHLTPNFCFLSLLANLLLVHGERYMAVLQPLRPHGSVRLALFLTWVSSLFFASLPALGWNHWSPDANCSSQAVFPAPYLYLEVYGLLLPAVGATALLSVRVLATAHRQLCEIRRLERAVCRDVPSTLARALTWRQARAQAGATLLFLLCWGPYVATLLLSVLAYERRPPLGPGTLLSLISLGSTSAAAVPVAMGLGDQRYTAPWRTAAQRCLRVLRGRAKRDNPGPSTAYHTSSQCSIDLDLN
The experiment in a line: Mouse TGR5 HTRF cAMP production assay (HEK293-EBNA cells, Cisbio cAMP HiRange kit). Type of test: cell-based. The note with it: HEK293-EBNA cells overexpressing mouse TGR5, HTRF cAMP assay. The gist of the method:
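cAMP accumulation was read by competitive HTRF after 1 h room-temperature compound treatment, with a further 1 h conjugate incubation. Cells were mouse TGR5-overexpressing HEK293-EBNA in serum-free DMEM plus 500 μM IBMX. Compounds ran as 12-point half-log series in duplicate, and EC50 values were reported.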

The target in a further test is T2, human TGR5 receptor (Homo sapiens, UniProt Q8TDU6).
T2 construct: host or cells: CHO-K1 (hTGR5-CHO)
T2 sequence (Q8TDU6 1-330): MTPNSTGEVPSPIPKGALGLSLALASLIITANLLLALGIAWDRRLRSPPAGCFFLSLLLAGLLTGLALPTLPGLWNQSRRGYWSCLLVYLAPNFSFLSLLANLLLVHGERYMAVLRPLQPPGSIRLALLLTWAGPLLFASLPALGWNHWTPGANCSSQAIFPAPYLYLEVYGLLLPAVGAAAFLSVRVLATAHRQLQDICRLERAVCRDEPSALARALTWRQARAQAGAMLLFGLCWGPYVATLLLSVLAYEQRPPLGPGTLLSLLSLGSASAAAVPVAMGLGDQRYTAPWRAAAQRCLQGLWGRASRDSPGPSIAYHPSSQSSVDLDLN
The experiment in a line: Human TGR5 cAMP production assay (hTGR5-CHO cells, DiscoveRx cAMP XS+ kit). The following applies: luminescent cAMP assay, read-out: Human TGR5 Lum. cAMP Activity (EC50). Type of test: cell-based. The gist of the method: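 EC50 values come from luminescent enzyme-complementation cAMP detection, read after overnight incubation. Beforehand, hTGR5-expressing CHO-K1 cells with IBMX and anti-cAMP antibody were exposed 1 h at room temperature to serially diluted (half-log) compounds.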
Background: cAMP levels reflect the balance of adenylyl cyclase and phosphodiesterase activity.

pEC50: −log10 of the molar value. Some results are limits rather than exact numbers.

For the compound `N#Cc1ccc(CCNC(=O)[C@@H]2CCCN2c2cc(-c3ccc(CCNC(=O)NCCS(=O)(=O)O)cc3)nc(C(F)(F)F)n2)cc1` [Compound 194, (S)-2-(3-(4-(6-(2-((4-cyanophenethyl)carbamoyl)pyrrolidin-1-yl)-2-(trifluoromethyl)pyrimidin-4-yl)phenethyl)ureido)ethanesulfonic acid], the results for the negative-log EC50 (pEC50) at mouse TGR5 receptor and at human TGR5 receptor were more than 7.00 and 6.00 to 7.00, respectively.
`N#Cc1ccc(CCNC(=O)[C@@H]2CCCN2c2cc(-c3ccc(CCC(=O)O)cc3)nc(C(F)(F)F)n2)cc1` [Compound 188, (S)-3-(4-(6-(2-((4-cyanophenethyl)carbamoyl)pyrrolidin-1-yl)-2-(trifluoromethyl)pyrimidin-4-yl)phenyl)propanoic acid]: the pEC50 (in general, the EC50 on a negative log10 scale, so that one unit is a factor of ten) on mouse TGR5 receptor was more than 7.00; at human TGR5 receptor it was 6.00 to 7.00.
On the same counts, the results for `CC(C)(C)OC(=O)NCCC1CCN(c2cc(N3CCC[C@@H](C(=O)NCCc4ccc(C#N)cc4)C3)nc(C(F)(F)F)n2)CC1` [Compound 312, (R)-tert-butyl (2-(1-(6-(3-((4-cyanophenethyl)carbamoyl)piperidin-1-yl)-2-(trifluoromethyl)pyrimidin-4-yl)piperidin-4-yl)ethyl)carbamate] are 6.00 to 7.00 and 6.00 to 7.00.
With `N[C@@H]1C[C@@H](C(=O)NCCc2ccc(C(F)(F)F)cc2)N(c2cc(N3CCC(CCNC(=O)NCCC(=O)O)CC3)nc(C(F)(F)F)n2)C1` [Compound 375, 3-(3-(2-(1-(6-((2S,4R)-4-amino-2-((4-(trifluoromethyl)phenethyl)carbamoyl)pyrrolidin-1-yl)-2-(trifluoromethyl)pyrimidin-4-yl)piperidin-4-yl)ethyl)ureido)propanoic acid], the negative-log EC50 (pEC50) at mouse TGR5 receptor was 6.00 to 7.00; at human TGR5 receptor, 4.52 to 6.00.
Turning to `N#Cc1ccc(CCNC(=O)[C@@H]2CCCN2c2cc(-c3ccc(CO)s3)nc(C(F)(F)F)n2)cc1` [Compound 183, (S)-N-(4-cyanophenethyl)-1-(6-(5-(hydroxymethyl)thiophen-2-yl)-2-(trifluoromethyl)pyrimidin-4-yl)pyrrolidine-2-carboxamide], the pEC50 at mouse TGR5 receptor was more than 7.00; at human TGR5 receptor, 6.00 to 7.00.
For `N#Cc1ccc(CCNC(=O)[C@@H]2CCCN2c2cc(-c3ccc(CCN)cc3)nc(C(F)(F)F)n2)cc1` [Compound 184, (S)-1-(6-(4-(2-aminoethyl)phenyl)-2-(trifluoromethyl)pyrimidin-4-yl)-N-(4-cyanophenethyl)pyrrolidine-2-carboxamide], the negative logarithm of the EC50 (pEC50) on mouse TGR5 receptor and on human TGR5 receptor was 6.00 to 7.00 in each case.
Regarding `N#Cc1ccc(CCNC(=O)[C@@H]2CCCN2c2cc(N3CCC(CCCNC(=O)NCS(=O)(=O)O)CC3)cc(C(F)(F)F)n2)cc1` [Compound 201, (S)-(3-(3-(1-(2-(2-((4-cyanophenethyl)carbamoyl)pyrrolidin-1-yl)-6-(trifluoromethyl)pyridin-4-yl)piperidin-4-yl)propyl)ureido)methanesulfonic acid], the negative-log EC50 (pEC50) at mouse TGR5 receptor was more than 7.00; at human TGR5 receptor it was 6.00 to 7.00.
With `O=C(CCCC1CCN(c2cc(N3CCC[C@@H](C(=O)NCCc4ccc(C(F)(F)F)cc4)C3)nc(C(F)(F)F)n2)CC1)NCCS(=O)(=O)O` [Compound 336, (R)-2-(4-(1-(2-(trifluoromethyl)-6-(3-((4-(trifluoromethyl)phenethyl)carbamoyl)-piperidin-1-yl)pyrimidin-4-yl)piperidin-4-yl)butanamido)ethanesulfonic acid], the pEC50 on mouse TGR5 receptor is more than 7.00; at human TGR5 receptor it was 6.00 to 7.00.
For the compound `COCCC1CCN(c2cc(N3CC[C@H]3C(=O)NCCc3ccc(C#N)cc3)nc(C(F)(F)F)n2)CC1` [Compound 225, (S)-N-(4-cyanophenethyl)-1-(6-(4-(2-methoxyethyl)piperidin-1-yl)-2-(trifluoromethyl)pyrimidin-4-yl)azetidine-2-carboxamide], the negative-log EC50 (pEC50) at mouse TGR5 receptor and at human TGR5 receptor was more than 7.00 each time.
Consider `N=C(N)N1CCC(CCCC2CCN(c3cc(N4CC[C@H]4C(=O)NCCc4ccc(C(F)(F)F)cc4)nc(C(F)(F)F)n3)CC2)CC1` [Compound 288, (S)-1-(6-(4-(3-(1-carbamimidoylpiperidin-4-yl)propyl)piperidin-1-yl)-2-(trifluoromethyl)pyrimidin-4-yl)-N-(4-(trifluoromethyl)phenethyl)-azetidine-2-carboxamide], for which the negative-log EC50 (pEC50) at mouse TGR5 receptor is more than 7.00; on human TGR5 receptor, 6.00 to 7.00.
On the same counts, the results for `N#Cc1ccc(CCNC(=O)[C@@H]2CCCN2c2cc(-c3ccc(CCC(=O)NCCS(=O)(=O)O)cc3)nc(C(F)(F)F)n2)cc1` [Compound 189, (S)-2-(3-(4-(6-(2-((4-cyanophenethyl)carbamoyl)pyrrolidin-1-yl)-2-(trifluoromethyl)pyrimidin-4-yl)phenyl)propanamido)ethanesulfonic acid] are more than 7.00 and more than 7.00.
On to `N#Cc1ccccc1CCNC(=O)[C@@H]1CCCN1c1cc(N2CCC(CCCC(=O)NCS(=O)(=O)O)CC2)nc(C(F)(F)F)n1` [Compound 366, (S)-(4-(1-(6-(2-((2-cyanophenethyl)carbamoyl)pyrrolidin-1-yl)-2-(trifluoromethyl)pyrimidin-4-yl)piperidin-4-yl)butanamido)methanesulfonic acid], for which the pEC50 at mouse TGR5 receptor and at human TGR5 receptor was more than 7.00 throughout.
Regarding `N[C@@H](CCC(=O)NCCCC1CCN(c2cc(N3CCC[C@H]3C(=O)NCCc3ccc(C(F)(F)F)cc3)nc(C(F)(F)F)n2)CC1)C(=O)O` [Compound 77, (S)-2-amino-5-oxo-5-((3-(1-(2-(trifluoromethyl)-6-((S)-2-((4-(trifluoromethyl)phenethyl)carbamoyl)pyrrolidin-1-yl)pyrimidin-4-yl)piperidin-4-yl)propyl)amino)pentanoic acid], the negative-log EC50 (pEC50) at mouse TGR5 receptor and on human TGR5 receptor was more than 7.00 in each case.
With `N#Cc1ccc(CCNC(=O)[C@@H]2CCCN2c2cc(-c3ccc(CNC(=O)NCS(=O)(=O)O)cc3)nc(C(F)(F)F)n2)cc1` [Compound 192, (S)-(3-(4-(6-(2-((4-cyanophenethyl)carbamoyl)pyrrolidin-1-yl)-2-(trifluoromethyl)pyrimidin-4-yl)benzyl)ureido)methanesulfonic acid], the negative logarithm of the EC50 (pEC50) on mouse TGR5 receptor was more than 7.00; at human TGR5 receptor, 6.00 to 7.00.
The like results for `N#Cc1ccc(CCNC(=O)[C@@H]2CCCN2c2cc(N3CCC(CCCC(=O)NCCNC(=O)CS(=O)(=O)O)CC3)nc(C(F)(F)F)n2)cc1` [Compound 124, (S)-2-((2-(4-(1-(6-(2-((4-cyanophenethyl)carbamoyl)pyrrolidin-1-yl)-2-(trifluoromethyl)pyrimidin-4-yl)piperidin-4-yl)butanamido)-ethyl)amino)-2-oxoethanesulfonic acid] were, in that order, more than 7.00 and more than 7.00.
As to `N#Cc1ccc(CCNC(=O)[C@@H]2CCCN2c2cc(N3CCC(CCNC(=O)N[C@H](CC(=O)O)C(=O)O)CC3)nc(C(F)(F)F)n2)cc1` [Compound 82, (R)-2-(3-(2-(1-(6-((S)-2-((4-cyanophenethyl)carbamoyl)pyrrolidin-1-yl)-2-(trifluoromethyl)pyrimidin-4-yl)piperidin-4-yl)ethyl)ureido)succinic acid], the pEC50 on mouse TGR5 receptor and at human TGR5 receptor was more than 7.00 in each case.
Turning to `COC(=O)[C@@H](N)CCCCNC(=O)CCCC1CCN(c2cc(N3CCC[C@H]3C(=O)NCCc3ccc(C#N)cc3)nc(C(F)(F)F)n2)CC1` [Compound 71, (S)-methyl 2-amino-6-(4-(1-(6-((S)-2-((4-cyanophenethyl)carbamoyl)-pyrrolidin-1-yl)-2-(trifluoromethyl)-pyrimidin-4-yl)piperidin-4-yl)butanamido)hexanoate], the pEC50 on mouse TGR5 receptor and at human TGR5 receptor was more than 7.00 in each case.
With `N#Cc1ccc(CCNC(=O)[C@@H]2CCCN(c3cc(N4CCC(CCN)CC4)nc(C(F)(F)F)n3)C2)cc1` [Compound 345, (R)-1-(6-(4-(2-aminoethyl)piperidin-1-yl)-2-(trifluoromethyl)pyrimidin-4-yl)-N-(4-cyanophenethyl)piperidine-3-carboxamide], the pEC50 on mouse TGR5 receptor and on human TGR5 receptor was more than 7.00 in each case.
For `N#Cc1ccc(CCNC(=O)[C@@H]2CCCN2c2cc(N3CCC(CCCC(=O)N4CCN(CC(=O)O)CC4)CC3)nc(C(F)(F)F)n2)cc1` [Compound 108, (S)-2-(4-(4-(1-(6-(2-((4-cyanophenethyl)carbamoyl)pyrrolidin-1-yl)-2-(trifluoromethyl)pyrimidin-4-yl)piperidin-4-yl)butanoyl)piperazin-1-yl)acetic acid], the pEC50 at mouse TGR5 receptor and at human TGR5 receptor was more than 7.00 throughout.
For `CN(C)CCC1CCN(c2cc(N3CCC[C@H]3C(=O)NCCc3ccc(C#N)cc3)nc(C(F)(F)F)n2)CC1` [Compound 21], the negative logarithm of the EC50 (pEC50) at mouse TGR5 receptor is 6.00 to 7.00; at human TGR5 receptor it was more than 7.00.
